Assay results as given in publication PMC7129073 (Clinical Microbiology and Infection, 2015).
In brackets after ≈: the same amount, converted by molar mass. Where two headings read alike, the source gives them in different places.

Key:
C. albicans = experiment: Antifungal susceptibility; assay type: cell-based, Candida albicans
C. glabrata = experiment: Antifungal susceptibility; assay type: cell-based, Candida glabrata
B. fragilis strains = experiment: E-test MIC before and after passages on metronidazole agar; assay type: cell-based; details: Bacteroides fragilis
Clostridium difficile = experiment: microbe, parasite or virus in culture; assay type: cell-based
F. necrophorum = experiment: E-test, 13 clinical isolates; assay type: cell-based, Fusobacterium necrophorum; details: for MIC50 / MIC90: Fusobacterium necrophorum
[1] = test system: Clostridium difficile (CD); experiment: Agar dilution MIC, CDAD isolates Montreal; assay type: cell-based; details: Clostridioides difficile
S. aureus SCVs = experiment: Resistance of small colony variants from cystic fibrosis patients; assay type: cell-based, Staphylococcus aureus; details: CF patients, Frankfurt 2004
Escherichia coli = experiment: Vitek 2 susceptibility, urine isolates of children; assay type: cell-based
[2] = test system: Salmonella serotype Enteritidis; experiment: Disk diffusion, food isolates Spain; assay type: cell-based; details: n = 96
[3] = test system: Salmonella serotype Typhimurium; experiment: Disk diffusion, food isolates Spain; assay type: cell-based; details: n = 53
H. influenzae [4] = assay type: cell-based, Haemophilus influenzae
S. maltophilia = experiment: Susceptibility of respiratory isolates of cancer patients; assay type: cell-based, Stenotrophomonas maltophilia; details: 40 patients
[5] = UTI under TMP-SMX prophylaxis after renal transplantation; assay type: in vivo, human; details: prophylaxis for 12 months; 104 of 336 patients
[6] = test system: glycopeptide intermediate Staphylococcus species (GISS); experiment: VITEK II, screening plate and E test, blood isolates; assay type: cell-based, coagulase-negative Staphylococci; details: 73 GISS strains
Acinetobacter = experiment: Disk diffusion; assay type: cell-based
H.influenzae = experiment: PROTEKT Italy, NCCLS microdilution; assay type: cell-based, Haemophilus influenzae
M. catarrhalis = experiment: PROTEKT Italy, NCCLS microdilution; assay type: cell-based, Moraxella catarrhalis
H. influenzae [7] = experiment: Disk diffusion, sputum isolates Athens 2001–2004; assay type: cell-based, Haemophilus influenzae
H. influenzae [8] = experiment: Broth microdilution; assay type: cell-based, Haemophilus influenzae; details: 267 isolates
S. pneumoniae [9] = experiment: Broth microdilution; assay type: cell-based, Streptococcus pneumoniae; details: 275 isolates
[10] = test system: viridans group streptococci (VGS); experiment: MIC; assay type: cell-based
S. pneumoniae [11] = assay type: cell-based, Streptococcus pneumoniae
S. pneumoniae (SPN) [12] = experiment: SENTRY Brazil, NCCLS broth microdilution; assay type: cell-based, Streptococcus pneumoniae
C. difficile = experiment: E-test, isolates from a department of surgery; assay type: cell-based, Clostridium difficile; details: Clostridioides difficile, read-out: MIC of high level resistant strains
S. aureus [13] = experiment: E-test susceptibility; assay type: cell-based, Staphylococcus aureus
[14] = test system: foreign body infection Staphylococcus epidermidis strains; experiment: NCCLS disk diffusion; assay type: cell-based; details: 86 strains
C. jejuni ATCC 33560 = experiment: VetMIC broth microdilution, QC strain; assay type: cell-based; details: Campylobacter jejuni, ATCC33560, read-out: QC limits (MIC)
[15] = test system: Pseudomonas aeruginosa (PSA); experiment: Vitek 2 susceptibility, urine isolates of children; assay type: cell-based; details: both departments
Pseudomonas spp. = experiment: MIC; assay type: cell-based
B. fragilis group = experiment: NCCLS broth microdilution, beta-lactamase positive isolates; assay type: cell-based, Bacteroides fragilis group; details: 449 isolates
[16] = test system: inducible Enterobacteriaceae; experiment: SMART 2003, intraabdominal isolates; assay type: cell-based
Enterobacteriaceae = experiment: SMART 2003 Europe, microdilution; assay type: cell-based; details: 1948 isolates
E. coli [17] = experiment: SMART 2003 Europe, microdilution; assay type: cell-based, Escherichia coli; details: 1106 isolates
Klebsiella = experiment: SMART 2003 Europe, microdilution; assay type: cell-based, Klebsiella spp.; details: 341 isolates
A. baumannii = experiment: Italian survey of severe infections 2003, MIC; assay type: cell-based, Acinetobacter baumannii
B.cepacia = experiment: Italian survey of severe infections 2003, MIC; assay type: cell-based, Burkholderia cepacia
Escherichia coli (ECO) = experiment: Broth microdilution; assay type: cell-based; details: 2001
E. faecalis = experiment: E-test susceptibility; assay type: cell-based, Enterococcus faecalis
E. coli [18] = experiment: E-test susceptibility; assay type: cell-based, Escherichia coli
K. oxytoca = experiment: E-test susceptibility; assay type: cell-based, Klebsiella oxytoca
Enterobacter spp = experiment: E-test susceptibility; assay type: cell-based
Gram-negative rods = experiment: Microscan MIC, blood culture isolates; assay type: cell-based
S. pneumoniae (SPN) [19] = experiment: NCCLS broth microdilution, fluoroquinolones 1999–2004; assay type: cell-based, Streptococcus pneumoniae; details: Streptococcus pneumoniae, read-out: MIC90 during the six years, 1999–2004
S. pneumoniae [20] = experiment: SELECT study, levofloxacin-treated RTIs caused by S. pneumoniae; assay type: in vivo, human
[21] = test system: Streptococcus agalactiae strains P0162 and P0425; experiment: Microdilution; assay type: cell-based
[22] = test system: Pseudomonas aeruginosa (PA); experiment: MIC; assay type: cell-based
[23] = test system: Streptococcus pneumoniae (SPN); experiment: MIC; assay type: cell-based; details: 8378 isolates
[24] = test system: Haemophilus influenzae (HI); experiment: MIC; assay type: cell-based; details: 7489 isolates
[25] = test system: Moraxella catarrhalis (MC); experiment: MIC; assay type: cell-based; details: 2497 isolates
[26] = test system: Streptococcus pyogenes (SPY); experiment: MIC; assay type: cell-based; details: 2522 isolates
S. pneumoniae [27] = experiment: PROTEKT Italy, NCCLS microdilution; assay type: cell-based, Streptococcus pneumoniae
S. pneumoniae [28] = experiment: MIC of invasive strains, Saint George Hospital 2001–2004; assay type: cell-based, Streptococcus pneumoniae
S. aureus [29] = experiment: NCCLS broth microdilution, SSTI isolates; assay type: cell-based; details: Staphylococcus aureus
[30] = test system: Coagulase Negative Staphylococci; experiment: E-test susceptibility; assay type: cell-based
[31] = 37 isolates selected as resistant to beta-lactams
[32] = ICU, SRGA breakpoints, tigecycline tentative S ≤2 μg/ml

CC(=O)N1CCN(c2ccc(OCC3COC(Cn4ccnc4)(c4ccc(Cl)cc4Cl)O3)cc2)CC1 (stereo not drawn) [ketokonazole]
intermediate susceptibility (C. albicans): 2%
intermediate susceptibility (C. glabrata): 22%

Cc1ncc([N+](=O)[O-])n1CCO [metronidazole]
MIC (B. fragilis strains; 10 nim-negative clinical isolates): 0.25 to 0.75 µg/mL (≈ 1.46 to 4.38 µM)
MIC (B. fragilis strains; ATCC25285, ATCC 25285, nim-negative): 0.19 µg/mL (≈ 1.11 µM)
MIC (B. fragilis strains; four nim-positive reference strains): 3 to 8 µg/mL (≈ 17.5 to 46.7 µM)
MIC (B. fragilis strains; three nim-positive clinical isolates): > 256 µg/mL
MIC (Clostridium difficile; Clostridioides difficile, read-out: MICs of selected resistant isolates): 16 to 64 µg/mL (≈ 93.5 to 374 µM)
prevalence of resistance (Clostridium difficile; authors' institution): 6%
MIC range (F. necrophorum): 0.016 to 2 µg/mL
MIC50 (F. necrophorum): 0.125 µg/mL (≈ 0.73 µM)
MIC90 (F. necrophorum): 0.5 µg/mL (≈ 2.92 µM)
MIC ([1]; read-out: median MIC, 2003–4): 2 µg/mL (≈ 11.7 µM)
MIC ([1]; read-out: median MIC, other ribotypes): 0.5 µg/mL (≈ 2.92 µM)

trimethoprim/sulfamethoxazole
resistance rate of SCV isolates (S. aureus SCVs): All SCV isolates were resistant
susceptibility rate (Escherichia coli; paediatric surgical unit (PSU)): 35%
susceptibility rate (Escherichia coli; paediatric units (PU)): 71%
resistance rate (NCCLS M100-S13) [2]: 7%
resistance rate (NCCLS M100-S13) [3]: 19%
resistant (H. influenzae [4]): 19%
Susceptible isolates (S. maltophilia): 93%
patients with UTI within 2 years after transplantation [5]: 31%
resistance rate [6]: 38,3%
resistant isolates (Acinetobacter; [31]): 59.5%
resistance (H.influenzae; year 1): 13.6%
resistance (H.influenzae; year 2): 14.1%
susceptibility rate (M. catarrhalis; year 1): 77.3%
susceptibility rate (M. catarrhalis; year 2): 81.1%
resistance rate (H. influenzae [7]; 2001–2002): 26.9%
resistance rate (H. influenzae [7]; 2003–2004): 13.4%
susceptible (H. influenzae [8]): 54.3%
Susceptibility (S. pneumoniae [9]): 46.2%

CCC[C@@H]1C[C@@H](C(=O)N[C@@H]([C@H]2O[C@H](SC)[C@H](O)[C@@H](O)[C@H]2O)[C@H](C)Cl)N(C)C1 [clindamycin]
MIC50 [10]: 0.06 µg/mL (≈ 0.141 µM)
MIC90 [10]: 256 µg/mL (≈ 602 µM)
resistant (S. pneumoniae [11]): 5%
% S (S. pneumoniae (SPN) [12]; 1998): 94/- %
% S (S. pneumoniae (SPN) [12]; 1999): 95/- %
% S (S. pneumoniae (SPN) [12]; 2000): 96/- %
% S (S. pneumoniae (SPN) [12]; 2001): 95/- %
% S (S. pneumoniae (SPN) [12]; 2002): 100/- %
% S (S. pneumoniae (SPN) [12]; 2003): 98/- %
MIC range (F. necrophorum): 0.016 to 0.125 µg/mL
MIC50 (F. necrophorum): 0.032 µg/mL (≈ 0.0753 µM)
MIC90 (F. necrophorum): 0.064 µg/mL (≈ 0.151 µM)
Susceptibility (S. pneumoniae [9]): 91.3%
MIC (C. difficile): > 256 µg/mL
Susceptibility (S. aureus [13]; [32]): 99%
Susceptibility (S. aureus [13]; non-ICU): 96%
% resistant [14]: More than 30%

CCN1CCN(c2cc3c(cc2F)c(=O)c(C(=O)O)cn3C2CC2)CC1 [enrofloxacin]
MIC (C. jejuni ATCC 33560): 0.25 to 0.5 µg/mL (≈ 0.696 to 1.39 µM)

piperacillin/tazobactam
Susceptible isolates [15]: 74-100%
resistant isolates (Acinetobacter; [31]): 43.2%
susceptible strains (Pseudomonas spp.): 92%
isolates inhibited at =/< 32 mg/L (B. fragilis group): > 99%
% susceptible ([16]; A/P (N = 200)): 80%
% susceptible ([16]; EU (N = 354)): 85%
% susceptible ([16]; LA (N=113)): 78%
% susceptible ([16]; NA (N = 163)): 82%
per cent susceptible (Enterobacteriaceae): 91%
per cent susceptible (E. coli [17]): 94%
per cent susceptible (Klebsiella): 85%
resistance (A. baumannii): 13.3%
resistance (B.cepacia): 7.2%
susceptible (Escherichia coli (ECO); NAL-resistant isolates): 85.7%
susceptible (Escherichia coli (ECO); NAL-susceptible isolates): 94.2%
Susceptibility (E. faecalis; ICU, SRGA breakpoints, tigecycline tentative ≤2 μg/ml): 99%
Susceptibility (E. faecalis; non-ICU): 100%
Susceptible isolates (E. coli [18]; [32]): 98%
Susceptible isolates (E. coli [18]; non ICU): 99%
Susceptible isolates (K. oxytoca; ICU): 100%
Susceptible isolates (K. oxytoca; non ICU): 94%
Susceptible isolates (Enterobacter spp; ICU): 78%
Susceptible isolates (Enterobacter spp; non ICU): 93%
susceptible strains (n/N) (Gram-negative rods): 16/16

C[C@H]1COc2c(N3CCN(C)CC3)c(F)cc3c(=O)c(C(=O)O)cn1c23 [levofloxacin]
MIC50 [10]: 0.5 µg/mL (≈ 1.38 µM)
MIC90 [10]: 1 µg/mL (≈ 2.77 µM)
MIC90 (S. pneumoniae (SPN) [19]): 1 to 2 µg/mL (≈ 2.77 to 5.53 µM)
clinical successes (S. pneumoniae [20]; 500 mg once or twice daily, 90/100 subjects): 90%
clinical success, PNSSPs (S. pneumoniae [20]; 44/49): 89.8%
clinical success, PSSPs (S. pneumoniae [20]; 46/51): 90.2%
died due to initial infection (S. pneumoniae [20]; eight subjects): 8%
clinical failures (S. pneumoniae [20]; two subjects): 2%
MIC ([21]; strain P0162 (ParC Ser79Phe, GyrA Glu85Ala)): 8 µg/mL (≈ 22.1 µM)
MIC ([21]; strain P0425 (ParC Ser79Phe, GyrA Glu85Lys)): > 32 µg/mL
isolates with MPC ≥ 8 μg/ml [22]: 64%
MPC range ([22]; 10 billion organisms on agar): 2 to 16 µg/mL
MIC range ([22]; patients P1 and P2): 0.25 to 2 µg/mL
resistant isolates (Acinetobacter): 78.4%
MIC90 [23]: 1 ig/ml
MIC90 [24]: 0.12 ig/ml
MIC90 [25]: 0.12 ig/ml
MIC90 [26]: 1 ig/ml
% susceptible ([16]; LA (N=113)): 80%
per cent susceptible (Enterobacteriaceae): 86%
per cent susceptible (E. coli [17]): 81%
per cent susceptible (Klebsiella): 93%
susceptible (S. pneumoniae [27]; year 1: 2002): 97.3%
susceptible (S. pneumoniae [27]; year 2: 2003): 97.1%
% S (S. pneumoniae [28]): 100%
%R (S. pneumoniae [28]): 0%
Susceptibility (S. pneumoniae [9]): 99.6%
MIC50 (S. aureus [29]): 0.25 µg/mL (≈ 0.692 µM)

CO[C@H]1/C=C/O[C@@]2(C)Oc3c(C)c(O)c4c(O)c(c(/C=N/N5CCN(C)CC5)c(O)c4c3C2=O)NC(=O)/C(C)=C\C=C\[C@H](C)[C@H](O)[C@@H](C)[C@@H](O)[C@@H](C)[C@H](OC(C)=O)[C@@H]1C [Rifampicin]
Susceptibility (S. aureus [13]; [32]): 99/99%
Susceptibility (S. aureus [13]; non-ICU): 99/99%
Susceptibility ([30]; ICU): 86%
Susceptibility ([30]; non-ICU): 97%
